Results reported in patent US4544629A, “Receptor-based histamine assay” (Minnesota Mining and Manufacturing Company, priority 1982, dated 1985).
Counter-ions that a name gives are not always drawn. Like-named read-outs stand apart in the source and are kept apart here. Values belong to the molecule of their own block, whether it stands above or below them.

What was measured:
[1] = test system: histamine receptor
Protocol: (§1) Samples of 200 microliters of heat-inactivated fetal calf sera were added to each well of a polystyrene microtiter plate as a protein pretreatment and the seracontaining plates were incubated at 25° C. for 15 minutes. Each well was then washed twice with phosphate-buffered saline. To each well was added 200 microliters of 1 millimolar trinitrobenzene sulfonate in phosphate-buffered saline, and the plate was incubated at 37° C. for thirty minutes. Each well was then washed three times with phosphate-buffered saline. To each well was then added 200 microliters of histamine receptor in phosphate buffered saline prepared according to the procedure of EXAMPLE 1. The plate was then incubated at 25° C. for thirty minutes. After the incubation, each well was washed three times with phosphate-buffered saline and the plates were allowed to air dry at 25° C. for about 16 hours, then stored at 4° C.

[2] = test system: histamine receptor; conditions: read at 510 nm, blank .400, background .095
Protocol: (§2) In order to free the histamine receptors from the cell wall, the cells were washed three times in phosphate buffered saline, resuspended at a concentration of 1×10^7 cells per ml in phosphate-buffered saline and either stored at 4° C. for three days or incubated at 46° C. for 90 minutes. The cells were then centrifuged at 1000 X G for ten minutes. The supernatant liquid containing the shed histamine receptors was removed by aspiration and the cell pellet discarded.
as §1

[3] = test system: histamine receptor on whole cells; conditions: 1×10^6 cells
Protocol: (§3) To determine the sensitivity of the histamine assay, an inhibition assay was performed using whole cells with histamine in 0.01M phosphate-bufferedsaline as the inhibitor. The histamine was incubated with 1×10^6cells for 30 minutes. The unbound inhibitor was washed out and the histamine-enzyme added and incubated 30 minutes. After washing out the unbound indicator, the enzyme substrate, p-nitrophenyl phosphate was added and incubated for 1 hour at 37° C. The enzymatic reaction was stopped with 1N aqueous sodium hydroxide and the absorbance at A410 read from a Beckman spectrophotometer. The amount of product formed was inversely proportional to the amount of free histamine bound to the cells.

[4] = test system: cell surface histamine receptors; conditions: phosphate-buffered saline
Protocol: as §2, §1
(§4) Cell surface histamine receptors prepared as described in EXAMPLE 1 were affixed to microtiter plate wells by protein pretreatment (see EXAMPLE 2) of the plate followed by surface activation with 1 millimolar trinitrobenzene sulfonate as described in EXAMPLE 2.
(§5) The various quantities of histamine in phosphate-buffered saline were incubated in several replications with the receptor. […] After washing out the unbound indicator, para-nitrophenyl phosphate was added and incubated for 1 hour at 37° C. The enzymatic reaction was stopped with 1N aqueous sodium hydroxide and the absorbance at A410 read from a Beckman spectrophotometer.

[5] = test system: histamine receptors attached to a solid phase; conditions: anticoagulated human whole blood
Protocol: as §3, §4, §5
Using the method described in EXAMPLES 6 and 7, the sensitivity of the assay to histamine dissolved in anticoagulated human whole blood was measured.

[6] = test system: histamine receptor on whole cells
Protocol: The reaction was stopped with 1N aqueous sodium hydroxide and the product formed was quantified spectrophotometrically. The total enzyme activity was determined by incubating 10 microliters of the dilutions of histamine-enzyme with the enzyme substrate for 60 minutes, stopping the reaction with lN aqueous sodium hydroxide and quantifying the product formed.

- Average 3H Counts per minute ([1]; control wells (nonspecific binding)): 1172 Counts per minute
- Average 3H Counts per minute ([1]; receptor wells): 7968 Counts per minute
Compound: [3H]c1nc(CCN)c([3H])[nH]1 [3H-labeled histamine, 2,5-^3 H-histamine hydrochloride]

- Absorbance ([2]; 25 micrograms histamine per well): .310
- Absorbance ([2]; 50 micrograms histamine per well): .285
- Absorbance ([2]; 75 micrograms histamine per well): .205
- Absorbance ([2]; 100 micrograms histamine per well): .125
- Percent inhibition of enzyme activity ([5]; 1 ng histamine added): 49%
- Percent inhibition of enzyme activity ([5]; 5 ng histamine added): 70%
- Percent inhibition of enzyme activity ([5]; 10 ng histamine added): 79%
- Percent inhibition of enzyme activity ([5]; 25 ng histamine added): 91%
Compound: NCCc1c[nH]cn1 [Histamine, histamine]
- Percent inhibition of enzyme activity ([3]; histamine added 500 pg): 7%
- Percent inhibition of enzyme activity ([3]; histamine added 5 ng): 14%
- Percent inhibition of enzyme activity ([3]; histamine added 50 ng): 24%
- Percent inhibition of enzyme activity ([3]; histamine added 500 ng): 32%
- Percent inhibition of enzyme activity ([3]; histamine added 5 g (so in the source)): 45%
- Percent inhibition of enzyme activity ([3]; histamine added 50 g (so in the source)): 69%
- Percent inhibition of enzyme activity ([4]; 0.05 ng histamine added): 30%
- Percent inhibition of enzyme activity ([4]; 0.1 ng histamine added): 40%
- Percent inhibition of enzyme activity ([4]; 0.25 ng histamine added): 46%
- Percent inhibition of enzyme activity ([4]; 0.5 ng histamine added): 52%
- Percent inhibition of enzyme activity ([4]; 1 ng histamine added): 60%
- Percent inhibition of enzyme activity ([4]; 5 ng histamine added): 65%
- Percent inhibition of enzyme activity ([4]; 10 ng histamine added): 72%
- Percent inhibition of enzyme activity ([4]; 25 ng histamine added): 79%
- Inhibition of receptor-bound histamine-enzyme stimulation [6]: inhibitable
- Effect of added histamine on the enhanced enzyme activity ([6]; histamine added before incubation with histamine-alkaline phosphatase): inhibited
